Results as given in ChEMBL document CHEMBL1201862, “PubChem BioAssay data set” (2004).
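Test compounds were applied to cells in 96-well plates for 48 hours at 5 doses. Here, GI50 denotes the concentration required for 50% inhibition of growth.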 Activity calls are given as the source filed them. Rule as the data show it: active = GI50 up to about 1.1 µM and inactive = higher.

Legend:
Experiment in all cases: inhibition of tumour cell growth, NCI panel, 48 h
[1] = system: Malme-3M
[2] = system: SNB-75
[3] = system: SF-295
[4] = system: 786-0
[5] = system: MDA-N
[6] = system: SR
[7] = system: NCI-H226
[8] = system: MOLT-4
[9] = system: SK-MEL-5
[10] = system: RXF 393
[11] = system: NCI-H522
[12] = system: U-251
[13] = system: MDA-MB-231
[14] = system: HT-29
[15] = system: K562
[16] = system: SW-620
[17] = system: HCC 2998
[18] = system: OVCAR-8
[19] = system: KM12
[20] = system: MCF7

Measured: GI50

Cc1cc2ccccc2c[n+]1CC(=O)CC([O-])(C(F)(F)F)C(F)(F)F
inactive: [1] > 100 µM | [2] > 100 µM | [3] > 100 µM | [4] > 100 µM | [5] > 100 µM | [6] > 100 µM | [7] > 100 µM | [8] 79.8 µM | [9] 50.7 µM | [10] 37.3 µM | [11] 85.1 µM | [12] > 100 µM | [13] > 100 µM | [14] 56.6 µM | [15] 72.8 µM | [16] > 100 µM | [17] > 100 µM | [18] > 100 µM

CC(=O)ON(C(C)=O)C1C(COC(c2ccccc2)(c2ccccc2)c2ccccc2)OC2OC3(CCCC3)OC21 (stereo not given)
inactive: [1] > 89.7 µM | [2] 21.2 µM | [3] 6 µM | [4] 30.9 µM | [6] 3.2 µM | [7] 9.16 µM | [8] 3.15 µM | [9] 6.3 µM | [10] 4.44 µM | [11] 2.46 µM | [12] 6.47 µM | [14] > 26.6 µM | [15] 4.27 µM | [19] 5.09 µM | [16] 8.63 µM | [17] > 50.4 µM | [18] 5.13 µM

O=C1OC(CC(=O)c2ccc(Cl)cc2Cl)C(Cl)=C1Cl (stereo not given)
inactive: [1] 19.7 µM | [2] > 43.7 µM | [3] > 100 µM | [4] 21.9 µM | [6] 26.5 µM | [7] 30 µM | [8] 24.8 µM | [9] 45.6 µM | [10] 18.2 µM | [11] 17.6 µM | [12] 27.6 µM | [14] 18.7 µM | [15] 29.1 µM | [19] > 100 µM | [16] 19.4 µM | [17] 15.8 µM | [18] 27.2 µM

O=c1[nH]cc(-c2c[nH]c3ccccc23)nc1-c1c[nH]c2ccccc12
inactive: [1] 11.2 µM | [2] 10.3 µM | [3] 4.53 µM | [4] 11.3 µM | [5] 2.47 µM | [20] 10.2 µM | [9] 13.4 µM | [10] 2.74 µM | [11] 6.79 µM | [12] 21 µM | [13] 22.3 µM | [15] 2.96 µM | [19] 4.95 µM | [16] 4.9 µM | [17] 9.57 µM | [18] 12.8 µM

N#Cc1ccc(Sc2ccccc2)cc1C#N
inactive: [1] > 100 µM | [2] 21.7 µM | [3] 39.9 µM | [4] 28.1 µM | [6] 18.7 µM | [7] > 100 µM | [8] > 100 µM | [9] > 100 µM | [10] 33 µM | [11] 31.7 µM | [12] 36.1 µM | [14] > 100 µM | [15] 45.8 µM | [19] > 100 µM | [17] > 100 µM | [18] 31 µM

COc1ccc2nc3cc(Cl)ccc3c(Sc3ccccc3[N+](=O)[O-])c2c1
inactive: [1] > 100 µM | [2] 16.9 µM | [3] > 100 µM | [4] 75.3 µM | [6] > 100 µM | [7] 17.7 µM | [8] > 100 µM | [9] > 100 µM | [10] 49.5 µM | [11] > 100 µM | [12] > 100 µM | [15] > 100 µM | [19] > 100 µM | [16] > 100 µM | [17] > 100 µM | [18] > 100 µM

CC(=O)Nc1ccc(OC/C(N)=N/NC(=O)c2ccncc2)cc1
inactive: [2] 29.1 µM | [3] > 100 µM | [4] > 100 µM | [5] > 100 µM | [20] > 100 µM | [8] > 100 µM | [10] > 100 µM | [11] > 100 µM | [12] > 100 µM | [13] > 100 µM | [14] > 100 µM | [15] > 100 µM | [19] > 100 µM | [16] > 100 µM | [17] > 100 µM | [18] > 100 µM

COc1cc(=O)oc(/C=C/CO)c1C
inactive: [1] > 100 µM | [2] > 100 µM | [3] > 100 µM | [4] > 100 µM | [6] > 100 µM | [7] > 100 µM | [8] > 100 µM | [9] > 100 µM | [10] > 100 µM | [11] 28.9 µM | [12] > 100 µM | [14] > 100 µM | [15] > 100 µM | [19] > 100 µM | [16] > 100 µM | [17] > 100 µM | [18] > 100 µM

O=C(NC1CCCCC1)N1CCNC1=S
inactive: [1] > 100 µM | [2] > 100 µM | [3] > 100 µM | [4] > 100 µM | [5] > 100 µM | [6] > 100 µM | [7] 45.3 µM | [8] > 100 µM | [9] > 100 µM | [10] 7.71 µM | [11] > 100 µM | [12] 1.91 µM | [13] 3.2 µM | [14] > 100 µM | [15] > 100 µM | [19] > 100 µM | [16] > 100 µM | [17] > 100 µM | [18] > 100 µM

C=C[C@@]1(C)CCC2(O)C(CCC3C2(C)CCC[C@@]3(C)COC(=O)CC(=O)OC)C1 (stereo not given in full)
inactive: [1] 17.7 µM | [2] 19.9 µM | [4] 35.6 µM | [6] 22.2 µM | [7] 26.2 µM | [8] 17.2 µM | [9] 18 µM | [10] 23.7 µM | [11] 16.3 µM | [12] 17.9 µM | [14] 18.9 µM | [15] 22.4 µM | [19] 18.1 µM | [16] 17.6 µM | [17] 61.4 µM | [18] 23.1 µM

C/C(=N/N)c1sc(-c2nc(C)c(/C(C)=N\N)s2)nc1C
inactive: [1] > 100 µM | [2] > 100 µM | [3] > 100 µM | [4] > 55.6 µM | [6] 16.4 µM | [7] > 100 µM | [8] 24.5 µM | [9] > 100 µM | [10] > 100 µM | [11] > 53.6 µM | [12] > 100 µM | [14] > 80.9 µM | [15] 47.3 µM | [19] > 100 µM | [16] > 100 µM | [17] > 100 µM | [18] > 86.1 µM

CN(c1c(Cl)cccc1Cl)S(=O)(=O)c1ccccc1[N+](=O)[O-]
inactive: [1] > 100 µM | [2] > 100 µM | [3] > 100 µM | [4] > 100 µM | [5] > 100 µM | [20] > 100 µM | [6] > 100 µM | [7] > 100 µM | [8] > 100 µM | [10] > 100 µM | [11] > 100 µM | [12] > 100 µM | [14] > 100 µM | [19] > 100 µM | [16] > 100 µM | [17] > 100 µM | [18] > 100 µM

O=C(Cn1c2ccc(Br)cc2c2nc3ccccc3nc21)N1CCOCC1
inactive: [1] > 100 µM | [2] 22.1 µM | [3] > 100 µM | [4] > 100 µM | [5] > 100 µM | [7] > 100 µM | [8] > 100 µM | [9] > 100 µM | [10] 21.3 µM | [12] > 100 µM | [13] 63.5 µM | [14] > 100 µM | [15] > 100 µM | [19] > 100 µM | [16] > 100 µM | [17] > 100 µM | [18] 44.3 µM

COc1ccc2c(c1)C(=O)c1ccc(OC)cc1C2=S
inactive: [1] > 100 µM | [2] 30.3 µM | [3] > 100 µM | [4] > 100 µM | [6] > 100 µM | [7] > 100 µM | [8] > 100 µM | [9] > 100 µM | [10] > 100 µM | [11] > 100 µM | [12] 24.4 µM | [14] > 100 µM | [15] > 100 µM | [19] > 100 µM | [16] > 100 µM | [17] > 100 µM | [18] > 100 µM

Nc1ncnc2c1ncn2C1CCC(CP(=O)(O)O)C1 (stereo not given)
inactive: [1] > 100 µM | [3] > 100 µM | [4] > 100 µM | [5] > 100 µM | [20] > 100 µM | [7] > 100 µM | [9] > 100 µM | [10] > 100 µM | [12] > 100 µM | [13] > 100 µM | [14] > 100 µM | [19] > 100 µM | [16] > 100 µM | [17] > 100 µM | [18] > 100 µM

CCOC(=O)CCC(C(=O)OCC)n1nc2ccc(Nc3c(C)[n+]([O-])c4cc(F)c(OCC)cc4[n+]3[O-])cc2n1 (stereo not given)
inactive: [1] > 100 µM | [2] 15.8 µM | [3] 36.1 µM | [4] 25.3 µM | [5] > 100 µM | [20] 61.2 µM | [6] > 100 µM | [7] 36.7 µM | [8] > 100 µM | [9] 82.8 µM | [10] 11.6 µM | [11] 30.8 µM | [12] 23.6 µM | [14] > 100 µM | [15] > 100 µM | [19] > 100 µM | [16] > 100 µM | [17] 35 µM | [18] 30 µM
